Data on 22 molecules can be found in patent US20190284148A1, “MICROBIOCIDAL OXADIAZOLE DERIVATIVES” (SYNGENTA PARTICIPATIONS AG, priority 2016, published 2019).

Structures are written as SMILES.

For data set [1], the system named is Glomerella Lagenarium (Colletotrichum Lagenarium). The data set can be described thus: Glomerella lagenarium (Colletotrichum lagenarium) liquid culture / cucumber / preventative (anthracnose). It is filed as cell-based. The conditions noted are these: Colletotrichum orbiculare; 20 ppm in the applied formulation; liquid culture in PDB, 24° C., 3 to 4 days after application; read-out: disease control compared to untreated control (inhibition of growth measured photometrically). The procedure: Mycelia fragments or conidia suspensions of a fungus prepared either freshly from liquid cultures of the fungus or from cryogenic storage, are directly mixed into nutrient broth. DMSO solutions of the test compound (max. 10 mg/ml) are diluted with 0.025% Tween20 by a factor of 50 and 10 μl of this solution is pipetted into a microtiter plate (96-well format). The nutrient broth containing the fungal spores/mycelia fragments is then added to give an end concentration of the tested compound. The test plates are incubated in the dark at 24° C. and 96% relative humidity. The inhibition of fungal growth is determined photometrically after 2 to 7 days, depending on the pathosystem, and percent antifungal activity relative to the untreated check is calculated.
Conidia of the fungus from cryogenic storage are directly mixed into nutrient broth (PDB—potato dextrose broth). After placing a (DMSO) solution of test compound into a microtiter plate (96-well format), the nutrient broth containing the fungal spores is added. The test plates are incubated at 24° C. and the inhibition of growth is measured photometrically 3 to 4 days after application.
The following compounds at 20 ppm in the applied formulation give at least 80% disease control in this test when compared to untreated control under the same conditions, which show extensive disease development.

Data set [2] relates to Puccinia Recondita f. sp. Tritici. Description: Puccinia recondita f. sp. tritici / wheat / leaf disc preventative (brown rust). It is filed as in vivo. The conditions noted are these: foliar, 200 ppm in the applied formulation, wheat leaf segments cv. Kanzler, preventative (inoculated 1 day after application), assessed 7 to 9 days after application, read-out: disease control compared to untreated control leaf disks. As to the method: Leaf disks or leaf segments of various plant species are cut from plants grown in a greenhouse. The cut leaf disks or segments are placed in multiwell plates (24-well format) onto water agar. The leaf disks are sprayed with a test solution before (preventative) or after (curative) inoculation. Compounds to be tested are prepared as DMSO solutions (max. 10 mg/ml) which are diluted to the appropriate concentration with 0.025% Tween20 just before spraying. The inoculated leaf disks or segments are incubated under defined conditions (temperature, relative humidity, light, etc.) according to the respective test system. A single evaluation of disease level is carried out 3 to 14 days after inoculation, depending on the pathosystem. Percent disease control relative to the untreated check leaf disks or segments is then calculated. Wheat leaf segments cv. Kanzler were placed on agar in multiwell plates (24-well format) and sprayed with the formulated test compound diluted in water. The leaf disks were inoculated with a spore suspension of the fungus 1 day after application. The inoculated leaf segments were incubated at 19° C. and 75% relative humidity (rh) under a light regime of 12 hours light/12 hours darkness in a climate cabinet and the activity of a compound was assessed as percent disease control compared to untreated when an appropriate level of disease damage appears in untreated check leaf segments (7 to 9 days after application). The following compounds at 200 ppm in the applied formulation give at least 80% disease control in this test when compared to untreated control leaf disks under the same conditions, which show extensive disease development.

The test system is the same in data set [3]. The data set can be described thus: Puccinia recondita f. sp. tritici / wheat / leaf disc curative (brown rust). It is filed as in vivo. The conditions noted are these: foliar, 200 ppm in the applied formulation, wheat leaf segments cv. Kanzler, curative (applied 1 day after inoculation), assessed 6 to 8 days after application, read-out: disease control compared to untreated control leaf disks. As to the method: Leaf disks or leaf segments of various plant species are cut from plants grown in a greenhouse. The cut leaf disks or segments are placed in multiwell plates (24-well format) onto water agar. The leaf disks are sprayed with a test solution before (preventative) or after (curative) inoculation. Compounds to be tested are prepared as DMSO solutions (max. 10 mg/ml) which are diluted to the appropriate concentration with 0.025% Tween20 just before spraying. The inoculated leaf disks or segments are incubated under defined conditions (temperature, relative humidity, light, etc.) according to the respective test system. A single evaluation of disease level is carried out 3 to 14 days after inoculation, depending on the pathosystem. Percent disease control relative to the untreated check leaf disks or segments is then calculated.
Wheat leaf segments cv. Kanzler are placed on agar in multiwell plates (24-well format). The leaf segments are then inoculated with a spore suspension of the fungus. Plates were stored in darkness at 19° C. and 75% relative humidity. The formulated test compound diluted in water was applied 1 day after inoculation. The leaf segments were incubated at 19° C. and 75% relative humidity under a light regime of 12 hours light/12 hours darkness in a climate cabinet and the activity of a compound was assessed as percent disease control compared to untreated when an appropriate level of disease damage appears in untreated check leaf segments (6 to 8 days after application).
The following compounds at 200 ppm in the applied formulation give at least 80% disease control in this test when compared to untreated control leaf disks under the same conditions, which show extensive disease development.

Take `CC(=O)Nc1ccc(-c2noc(C(F)(F)F)n2)cc1Cl` [Compound 1.1, N-[2-chloro-4-[5-(trifluoromethyl)-1,2,4-oxadiazol-3-yl]phenyl]acetamide]: the melting point is 155 to 170 °C. The inhibition at 20 ppm in data set [1] was not below 80%.

As to `COCC(=O)Nc1ccc(-c2noc(C(F)(F)F)n2)cc1Cl` [Compound 1.2, N-[2-chloro-4-[5-(trifluoromethyl)-1,2,4-oxadiazol-3-yl]phenyl]-2-methoxy-acetamide], the melting point lay within 77 to 84 °C. Also, the inhibition at 20 ppm in data set [1] was not below 80%.

`CCC(=O)Nc1ccc(-c2noc(C(F)(F)F)n2)cc1C` [Compound 1.4, N-[2-methyl-4-[5-(trifluoromethyl)-1,2,4-oxadiazol-3-yl]phenyl]propanamide] yielded a melting point of 178 to 185 °C. Also, the inhibition at 20 ppm in data set [1] was not below 80%.

Molecule `COCC(=O)Nc1ccc(-c2noc(C(F)(F)F)n2)cc1C` [Compound 1.5, 2-methoxy-N-[2-methyl-4-[5-(trifluoromethyl)-1,2,4-oxadiazol-3-yl]phenyl]acetamide] yielded a melting point of 73 to 80 °C. The pest or weed control at 200 ppm in data set [2] was not below 80%. In addition, the inhibition at 20 ppm in data set [1] was not below 80%.

The molecule `CCC(=O)Nc1ccc(-c2noc(C(F)(F)F)n2)cc1F` [Compound 1.6, N-[2-fluoro-4-[5-(trifluoromethyl)-1,2,4-oxadiazol-3-yl]phenyl]propanamide] came in with a melting point of 123 to 128 °C. The pest or weed control at 200 ppm in data set [3] is not below 80%. The inhibition at 20 ppm in data set [1] is not below 80%.

`COCC(=O)Nc1ccc(-c2noc(C(F)(F)F)n2)cc1F` [Compound 1.8, N-[2-fluoro-4-[5-(trifluoromethyl)-1,2,4-oxadiazol-3-yl]phenyl]-2-methoxy-acetamide]: the melting point lay in the range of 42 to 46 °C. Besides, the pest or weed control at 200 ppm in data set [2] was not below 80%. Also, the inhibition at 20 ppm in data set [1] was not below 80%.

In turn, `C=CCON(C)C(=O)Nc1ccc(-c2noc(C(F)(F)F)n2)cc1C` [Compound 1.11, 1-allyloxy-1-methyl-3-[2-methyl-4-[5-(trifluoromethyl)-1,2,4-oxadiazol-3-yl]phenyl]urea] gave a melting point of 62 to 66 °C. Moreover, in data set [1], the inhibition at 20 ppm is not below 80%.

On to `C=C(C)CONC(=O)Nc1ccc(-c2noc(C(F)(F)F)n2)cc1C` [Compound 1.12, 1-(2-methylallyloxy)-3-[2-methyl-4-[5-(trifluoromethyl)-1,2,4-oxadiazol-3-yl]phenyl]urea], for which the melting point was 114 to 117 °C. In addition, the pest or weed control at 200 ppm in data set [2] was not below 80%. Further, the inhibition at 20 ppm in data set [1] is not below 80%.

Take `C=CCONC(=O)Nc1ccc(-c2noc(C(F)(F)F)n2)cc1C` [Compound 1.13, 1-allyloxy-3-[2-methyl-4-[5-(trifluoromethyl)-1,2,4-oxadiazol-3-yl]phenyl]urea]: the melting point was in the range of 101 to 104 °C. Also, the pest or weed control at 200 ppm in data set [2] is not below 80%. The inhibition at 20 ppm in data set [1] is not below 80%.

Consider `CC(C)C(=O)Nc1ccc(-c2noc(C(F)(F)F)n2)cc1F` [Compound 1.14, N-[2-fluoro-4-[5-(trifluoromethyl)-1,2,4-oxadiazol-3-yl]phenyl]-2-methyl-propanamide], for which the inhibition at 20 ppm in data set [1] was not below 80%.

As for `COCCC(=O)Nc1ccc(-c2noc(C(F)(F)F)n2)cc1F` [Compound 1.15, N-[2-fluoro-4-[5-(trifluoromethyl)-1,2,4-oxadiazol-3-yl]phenyl]-3-methoxy-propanamide], the pest or weed control at 200 ppm in data set [3] was not below 80%. Further, in data set [1], the inhibition at 20 ppm was not below 80%.

As to `CCC(C)C(=O)Nc1ccc(-c2noc(C(F)(F)F)n2)cc1F` (stereo not shown) [Compound 1.16, N-[2-fluoro-4-[5-(trifluoromethyl)-1,2,4-oxadiazol-3-yl]phenyl]-2-methyl-butanamide], the inhibition at 20 ppm in data set [1] was not below 80%.

Take `CC(CO)(CCl)C(=O)Nc1ccc(-c2noc(C(F)(F)F)n2)cc1F` (stereo not shown) [Compound 1.17, 2-(chloromethyl)-N-[2-fluoro-4-[5-(trifluoromethyl)-1,2,4-oxadiazol-3-yl]phenyl]-3-hydroxy-2-methyl-propanamide]: in data set [2], the pest or weed control at 200 ppm was not below 80%. The inhibition at 20 ppm in data set [1] is not below 80%.

With `CCC(COC)C(=O)Nc1ccc(-c2noc(C(F)(F)F)n2)cc1F` (stereo not shown) [Compound 1.18, N-[2-fluoro-4-[5-(trifluoromethyl)-1,2,4-oxadiazol-3-yl]phenyl]-2-(methoxymethyl) butanamide], the pest or weed control at 200 ppm in data set [2] and in data set [3] was not below 80% throughout. For the same molecule, the inhibition at 20 ppm in data set [1] was not below 80%.

On to `COCCCC(=O)Nc1ccc(-c2noc(C(F)(F)F)n2)cc1F` [Compound 1.19, N-[2-fluoro-4-[5-(trifluoromethyl)-1,2,4-oxadiazol-3-yl]phenyl]-4-methoxy-butanamide], for which the pest or weed control at 200 ppm in data set [2] is not below 80%. Also, in data set [1], the inhibition at 20 ppm is not below 80%.

Consider `COCCC(=O)Nc1ccc(-c2noc(C(F)(F)F)n2)cc1C` [Compound 1.21, 3-methoxy-N-[2-methyl-4-[5-(trifluoromethyl)-1,2,4-oxadiazol-3-yl]phenyl]propanamide], for which the inhibition at 20 ppm in data set [1] is not below 80%.

In the case of `Cc1cc(-c2noc(C(F)(F)F)n2)ccc1NC(=O)C(C)(CO)CCl` (stereo not shown) [Compound 1.23, 2-(chloromethyl)-3-hydroxy-2-methyl-N-[2-methyl-4-[5-(trifluoromethyl)-1,2,4-oxadiazol-3-yl]phenyl]propanamide], in data set [1], the inhibition at 20 ppm was not below 80%.

For `CCC(COC)C(=O)Nc1ccc(-c2noc(C(F)(F)F)n2)cc1C` (stereo not shown) [Compound 1.24, 2-(methoxymethyl)-N-[2-methyl-4-[5-(trifluoromethyl)-1,2,4-oxadiazol-3-yl]phenyl]butanamide], in data set [1], the inhibition at 20 ppm was not below 80%.

For the molecule `COCCCC(=O)Nc1ccc(-c2noc(C(F)(F)F)n2)cc1C` [Compound 1.25, 4-methoxy-N-[2-methyl-4-[5-(trifluoromethyl)-1,2,4-oxadiazol-3-yl]phenyl]butanamide], in data set [1], the inhibition at 20 ppm is not below 80%.

`Cc1cc(-c2noc(C(F)(F)F)n2)ccc1NC(=O)CC#N` [Compound 1.26, 2-cyano-N-[2-methyl-4-[5-(trifluoromethyl)-1,2,4-oxadiazol-3-yl]phenyl]acetamide]: the pest or weed control at 200 ppm in data set [2] is not below 80%. In data set [1], the inhibition at 20 ppm is not below 80%.

`COC(C)C(=O)Nc1ccc(-c2noc(C(F)(F)F)n2)cc1C` (stereo not shown) [Compound 1.27, 2-methoxy-N-[2-methyl-4-[5-(trifluoromethyl)-1,2,4-oxadiazol-3-yl]phenyl]propanamide]: in data set [3], the pest or weed control at 200 ppm is not below 80%. The inhibition at 20 ppm in data set [1] is not below 80%.

Regarding `Cc1cc(-c2noc(C(F)(F)F)n2)ccc1NC(=O)CC(F)(F)F` [Compound 1.28, 3,3,3-trifluoro-N-[2-methyl-4-[5-(trifluoromethyl)-1,2,4-oxadiazol-3-yl]phenyl]propanamide], the pest or weed control at 200 ppm in data set [2] is not below 80%.
